Patent US12297190B2, “Modulators of STING (stimulator of interferon genes)” (PFIZER INC., priority 2019, dated 2025)

Target: R232-STING (Homo sapiens, UniProt Q86WV6, H232R)
Test: biochemical

Chain of R232-STING (Q86WV6 155-341 H232R): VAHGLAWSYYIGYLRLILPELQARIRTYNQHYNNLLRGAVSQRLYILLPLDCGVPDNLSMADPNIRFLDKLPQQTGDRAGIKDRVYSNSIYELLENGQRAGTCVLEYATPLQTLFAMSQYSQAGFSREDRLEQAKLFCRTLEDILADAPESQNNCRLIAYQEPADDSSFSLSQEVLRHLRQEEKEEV

Row | Ki | Structure (SMILES)
1 | > 990 nM | CCn1nc(C)cc1-c1n[nH]c(-c2cc(C(N)=O)cc3c2cnn3CCN2CC(C)(O)C2)n1 [ZZZ103, 4-[3-(1-ethyl-3-methyl-1H-pyrazol-5-yl)-1H-1,2,4-triazol-5-yl]-1-[2-(3-hydroxy-3-methylazetidin-1-yl)ethyl]-1H-indazole-6-carboxamide]
2 | > 990 nM | CCn1nc(C)cc1-c1nnc(-c2cc(C(N)=O)cc3c2nnn3C)[nH]1 [ZZZ002, 4-[5-(1-ethyl-3-methyl-1H-pyrazol-5-yl)-4H-1,2,4-triazol-3-yl]-1-methyl-1H-benzotriazole-6-carboxamide]
3 | 748 nM | CCn1nc(C)cc1-c1nnc(-c2cc(C(N)=O)cc3c2cnn3CCN2CCC(C)CC2)[nH]1 [ZZZ018, 4-[5-(1-ethyl-3-methyl-1H-pyrazol-5-yl)-4H-1,2,4-triazol-3-yl]-1-[2-(4-methylpiperidin-1-yl)ethyl]-1H-indazole-6-carboxamide]
4 | > 990 nM | CCn1nc(C)cc1-c1nnc(-c2cc(C(N)=O)cc3c2cnn3CCCNC2CCCCC2)[nH]1 [ZZZ071, 1-[3-(cyclohexylamino)propyl]-4-[5-(1-ethyl-3-methyl-1H-pyrazol-5-yl)-4H-1,2,4-triazol-3-yl]-1H-indazole-6-carboxamide]
5 | > 990 nM | CCn1nc(C)cc1-c1n[nH]c(-c2cc(C(N)=O)cc3c2cnn3CCN2CC[C@@H](O)C2)n1 [ZZZ107, 4-[3-(1-ethyl-3-methyl-1H-pyrazol-5-yl)-1H-1,2,4-triazol-5-yl]-1-{2-[(3R)-3-hydroxypyrrolidin-1-yl]ethyl}-1H-indazole-6-carboxamide]
6 | > 990 nM | CCn1nc(C)cc1-c1nnc(-c2cc(C(N)=O)cc3c2cnn3C[C@H]2[C@@H]3CN(C(C)C)C[C@@H]32)[nH]1 [ZZZ017, 4-[5-(1-ethyl-3-methyl-1H-pyrazol-5-yl)-4H-1,2,4-triazol-3-yl]-1-{[(1R,5S,6r)-3-(propan-2-yl)-3-azabicyclo[3.1.0]hexan-6-yl]methyl}-1H-indazole-6-carboxamide]
7 | > 990 nM | CCn1nc(C)cc1-c1nnc(-c2cc(C(N)=O)cc3nn(C)nc23)[nH]1 [ZZZ003, 7-[5-(1-ethyl-3-methyl-1H-pyrazol-5-yl)-4H-1,2,4-triazol-3-yl]-2-methyl-2H-benzotriazole-5-carboxamide]
8 | 846 nM | CCn1nc(C)cc1-c1n[nH]c(-c2cc(C(N)=O)cc3c2cnn3CCN2CCO[C@@H](CO)C2)n1 [ZZZ115, 4-[3-(1-ethyl-3-methyl-1H-pyrazol-5-yl)-1H-1,2,4-triazol-5-yl]-1-{2-[(2R)-2-(hydroxymethyl)morpholin-4-yl]ethyl}-1H-indazole-6-carboxamide]
9 | > 990 nM | CCn1nc(CO)cc1-c1nnc(-c2cc(C(N)=O)cc3c2cnn3C)[nH]1 [ZZZ050, 4-{5-[1-ethyl-3-(hydroxymethyl)-1H-pyrazol-5-yl]-4H-1,2,4-triazol-3-yl}-1-methyl-1H-indazole-6-carboxamide]
10 | > 990 nM | CCn1nc(C)cc1-c1nnc(-c2cc(C(N)=O)cc3c2cnn3CCCCN(C)C)[nH]1 [ZZZ034, 1-[4-(dimethylamino)butyl]-4-[5-(1-ethyl-3-methyl-1H-pyrazol-5-yl)-4H-1,2,4-triazol-3-yl]-1H-indazole-6-carboxamide]
11 | > 990 nM | CCn1nc(C)cc1-c1n[nH]c(-c2cc(C(N)=O)cc3c2cnn3CCN2CCOC[C@@H]2CO)n1 [ZZZ116, 4-[3-(1-ethyl-3-methyl-1H-pyrazol-5-yl)-1H-1,2,4-triazol-5-yl]-1-{2-[(3S)-3-(hydroxymethyl)morpholin-4-yl]ethyl}-1H-indazole-6-carboxamide]
12 | > 990 nM | CCn1nc(C)c(F)c1-c1nnc(-c2cc(C(N)=O)cn3c(C(=O)O)ncc23)[nH]1 [ZZZ057, 6-carbamoyl-8-[5-(1-ethyl-4-fluoro-3-methyl-1H-pyrazol-5-yl)-4H-1,2,4-triazol-3-yl]imidazo[1,5-a]pyridine-3-carboxylic acid]
13 | > 990 nM | CCn1nc(C)cc1-c1nnc(-c2cc(C(N)=O)cc3c2cnn3CC2CC3(CNC3)C2)[nH]1 [ZZZ080, 1-[(2-azaspiro[3.3]heptan-6-yl)methyl]-4-[5-(1-ethyl-3-methyl-1H-pyrazol-5-yl)-4H-1,2,4-triazol-3-yl]-1H-indazole-6-carboxamide]
14 | > 90 nM | CCn1nc(C)cc1-c1nc(-c2nc(C(N)=O)cc3c2cnn3C)n(CCN)n1 [ZZZ047, 4-[1-(2-aminoethyl)-3-(1-ethyl-3-methyl-1H-pyrazol-5-yl)-1H-1,2,4-triazol-5-yl]-1-methyl-1H-pyrazolo[4,3-c]pyridine-6-carboxamide]
15 | 842 nM | CCn1nc(C)cc1-c1n[nH]c(-c2cc(C(N)=O)cc3c2cnn3CCN2CC[C@@H](OC)C2)n1 [ZZZ111, 4-[3-(1-ethyl-3-methyl-1H-pyrazol-5-yl)-1H-1,2,4-triazol-5-yl]-1-{2-[(3R)-3-methoxypyrrolidin-1-yl]ethyl}-1H-indazole-6-carboxamide]
16 | > 990 nM | CCn1nc(C)cc1-c1nnc(-c2cc(C(N)=O)cc3c2cnn3CC2CC3CNCC3C2)[nH]1 (centres unmarked) [ZZZ074, 4-[5-(1-ethyl-3-methyl-1H-pyrazol-5-yl)-4H-1,2,4-triazol-3-yl]-1-[(octahydrocyclopenta[c]pyrrol-5-yl)methyl]-1H-indazole-6-carboxamide]

Row | Ki | Structure (SMILES)
17 | 952 nM | CCn1nc(C)c(F)c1-c1nc(-c2cc(C(N)=O)cc3c2cnn3C)n(C)n1 [ZZZ129, 4-[3-(1-ethyl-4-fluoro-3-methyl-1H-pyrazol-5-yl)-1-methyl-1H-1,2,4-triazol-5-yl]-1-methyl-1H-indazole-6-carboxamide]
18 | 44.2 nM | Cn1ncc2c(-c3nc(-c4cc(C(F)(F)F)nn4CCC(=O)O)n[nH]3)cc(C(N)=O)cc21 [ZZZ085, 3-{5-[5-(6-carbamoyl-1-methyl-1H-indazol-4-yl)-1H-1,2,4-triazol-3-yl]-3-(trifluoromethyl)-1H-pyrazol-1-yl}propanoic acid]
19 | > 990 nM | CCn1nc(C)c(I)c1-c1nnc(-c2cc(C(N)=O)cc3c2cnn3C)[nH]1 [ZZZ053, 4-[5-(1-ethyl-4-iodo-3-methyl-1H-pyrazol-5-yl)-4H-1,2,4-triazol-3-yl]-1-methyl-1H-indazole-6-carboxamide]
20 | 512 nM | CCn1nc(C)cc1-c1nc(-c2nc(C(N)=O)cc3c2cnn3C)n(CCN(C)C)n1 [ZZZ125, 4-{1-[2-(dimethylamino)ethyl]-3-(1-ethyl-3-methyl-1H-pyrazol-5-yl)-1H-1,2,4-triazol-5-yl}-1-methyl-1H-pyrazolo[4,3-c]pyridine-6-carboxamide]
21 | > 990 nM | CCn1nc(C)cc1-c1nnc(-c2cc(C(N)=O)cc3c2cnn3C[C@H]2[C@@H]3CNC[C@@H]32)[nH]1 [ZZZ058, 1-{[(1R,5S,6r)-3-azabicyclo[3.1.0]hexan-6-yl]methyl}-4-[5-(1-ethyl-3-methyl-1H-pyrazol-5-yl)-4H-1,2,4-triazol-3-yl]-1H-indazole-6-carboxamide]
22 | 714 nM | CCCN1CCC[C@@H]1Cn1ncc2c(-c3nnc(-c4cc(C)nn4CC)[nH]3)cc(C(N)=O)cc21 (racemic) [ZZZ025, 4-[5-(1-ethyl-3-methyl-1H-pyrazol-5-yl)-4H-1,2,4-triazol-3-yl]-1-{[(2R)-1-propylpyrrolidin-2-yl]methyl}-1H-indazole-6-carboxamide]
23 | 541 nM | CCn1nc(C)cc1-c1n[nH]c(-c2cc(C(N)=O)cc3c2cnn3CCN2CCO[C@H](C)C2)n1 [ZZZ098, 4-[3-(1-ethyl-3-methyl-1H-pyrazol-5-yl)-1H-1,2,4-triazol-5-yl]-1-{2-[(2R)-2-methylmorpholin-4-yl]ethyl}-1H-indazole-6-carboxamide]
24 | 842 nM | CCn1nc(C)cc1-c1n[nH]c(-c2cc(C(N)=O)cc3c2cnn3CCN2CC(O)C2)n1 [ZZZ100, 4-[3-(1-ethyl-3-methyl-1H-pyrazol-5-yl)-1H-1,2,4-triazol-5-yl]-1-[2-(3-hydroxyazetidin-1-yl)ethyl]-1H-indazole-6-carboxamide]
25 | 944 nM | CCn1nc(C)cc1-c1n[nH]c(-c2cc(C(N)=O)cc3c2cnn3CCN2CC[C@H](OC)C2)n1 [ZZZ106, 4-[3-(1-ethyl-3-methyl-1H-pyrazol-5-yl)-1H-1,2,4-triazol-5-yl]-1-{2-[(3S)-3-methoxypyrrolidin-1-yl]ethyl}-1H-indazole-6-carboxamide]
26 | 947 nM | CCn1nc(C)cc1-c1ncc(-c2cc(C(N)=O)cc3c2cnn3C)[nH]1 [ZZZ009, 4-[2-(1-ethyl-3-methyl-1H-pyrazol-5-yl)-1H-imidazol-5-yl]-1-methyl-1H-indazole-6-carboxamide]
27 | > 900 nM | Cc1nn(CC(CO)CO)c(-c2n[nH]c(-c3cc(C(N)=O)cc4c3cnn4C)n2)c1F [ZZZ049, 4-(3-{4-fluoro-1-[3-hydroxy-2-(hydroxymethyl)propyl]-3-methyl-1H-pyrazol-5-yl}-1H-1,2,4-triazol-5-yl)-1-methyl-1H-indazole-6-carboxamide]
28 | > 990 nM | CCn1nc(C)cc1-c1nnc(-c2cc(C(N)=O)cc3c2cnn3CC2CC3(CCNC3)C2)[nH]1 (centres unmarked) [ZZZ070, 1-[(6-azaspiro[3.4]octan-2-yl)methyl]-4-[5-(1-ethyl-3-methyl-1H-pyrazol-5-yl)-4H-1,2,4-triazol-3-yl]-1H-indazole-6-carboxamide]
29 | > 1890 nM | CCn1nc(C)c(F)c1-c1n[nH]c(-c2cc(C(N)=O)cc3c2cnn3CCCNC)n1 [ZZZ054, 4-[3-(1-ethyl-4-fluoro-3-methyl-1H-pyrazol-5-yl)-1H-1,2,4-triazol-5-yl]-1-[3-(methylamino)propyl]-1H-indazole-6-carboxamide]
30 | > 990 nM | CCn1nc(C)cc1-c1nnc(-c2cc(C(N)=O)cc3c2cnn3[C@H]2C[C@H](NC)C2)[nH]1 [ZZZ066, 4-[5-(1-ethyl-3-methyl-1H-pyrazol-5-yl)-4H-1,2,4-triazol-3-yl]-1-[(1r,3r)-3-(methylamino)cyclobutyl]-1H-indazole-6-carboxamide]
31 | > 990 nM | CCc1cc(-c2n[nH]c(-c3cc(C(N)=O)cc4c3cnn4C)n2)n(CC)n1 [ZZZ005, 4-[3-(1,3-diethyl-1H-pyrazol-5-yl)-1H-1,2,4-triazol-5-yl]-1-methyl-1H-indazole-6-carboxamide]
32 | 641 nM | CCn1nc(C)cc1-c1nnc(-c2cc(C(N)=O)cc3c2cnn3C[C@H](C)C2CCNCC2)[nH]1 [ZZZ078, 4-[5-(1-ethyl-3-methyl-1H-pyrazol-5-yl)-4H-1,2,4-triazol-3-yl]-1-[(2R)-2-(piperidin-4-yl)propyl]-1H-indazole-6-carboxamide]
